Test results as given in ChEMBL document CHEMBL4422688, “(+)- and (-)-Alternarilactone A: Enantiomers with a Diepoxy-Cage-like Scaffold from an Endophytic Alternaria sp” (J Nat Prod, 2019).
Active and inactive are the calls of the source. No cut-off for these calls is given here.

Columns and labels:
[1] = test system: PC-12; assay: Cytoprotective activity against corticosterone-induced apoptosis in rat PC12 cells incubated for 24 hrs by MTS assay; type: functional, cell-based
[2] = test system: Gaeumannomyces graminis; assay: Antifungal activity against Gaeumannomyces graminis incubated for 48 hrs; type: functional, organism-based
[3] = test system: Salmonella typhi; assay: Antibacterial activity against Salmonella typhi assessed as inhibition of microbial growth incubated for 12 hrs by microdilution method; type: functional, organism-based; settings: Salmonella enterica subsp. enterica serovar Typhi
[4] = test system: Verticillium; assay: Antifungal activity against Verticillium cinnabarinum incubated for 48 hrs; type: functional
[5] = test system: Staphylococcus aureus; assay: Antibacterial activity against Staphylococcus aureus assessed as inhibition of microbial growth incubated for 12 hrs by microdilution method; type: functional, organism-based

Row | SMILES | Activity [1] | Activity [2] | Activity [3] | Activity [4] | Activity [5]
1 | COc1cc(O)c2c(c1)[C@@]13O[C@]4(C)C[C@@](O)(C(=O)C[C@@]1(C)O4)[C@H]3OC2=O | Active | inactive | inactive | inactive | inactive
2 | COc1cc(O)c2c(c1)[C@]13O[C@@]4(C)C[C@](O)(C(=O)C[C@]1(C)O4)[C@@H]3OC2=O | Active | inactive | inactive | inactive | inactive
